Experimental data as given in patent US9758477B2, “Sulfamoylbenzamide derivatives as antiviral agents against HBV infection” (priority 2011, dated 2017).
Like-named read-outs stand apart in the source and are kept apart here.

Tests used:
[1] = Cytotoxicity in HepDES19 cells, MTT assay; assay type: cell-based; settings: human, Table 10, HepDES19 cells, unit inferred
Method: Determination of cytotoxicity of compounds of the disclosure in human hepatoma-derived cell lines, HepDES19 cells were seeded into 96-well plates at a density of […] cells per well and cultured in DMEM/F12 media with 10% fetal bovine serum in the absence of tetracycline. One day after seeding, cells were left untreated or treated with a serial dilution of testing compounds, ranging from 50 μM to 0.39 μM, for 6 days. The cell viability was measured by a MTT assay, following procedure provided by the manufacturer (Promega). The cytotoxicity of a compound was expressed as the concentration of compound that reduces the viability of the cells by 50% (CC50).

encapsidated pgRNA = experiment: Encapsidated pgRNA by Northern blot in AML12HBV10 cells; assay type: cell-based, Hepatitis B virus (HBV); settings: 2 days, FIG. 3 panel C, Bay41-4109 5 μM, AT-61 25 μM
Method: To obtain mechanistic insight of the compounds of present invention against HBV, AML12HBV10 cells cultured in the 12-well plates were treated with a series of concentrations of DVR-1, DVR-56 or DVR-23 for two days in the absence of tetracycline (Guo et al., 2007). As positive controls, the cells were also treated with Bay41-4109 (5 μM) or AT-61 (25 μM), the known HBV nucleocapsid assembly effectors that either bind to HBV core protein dimmer to misdirect its interaction and prevent capsid formation (Bay41-4109) (Deres et al., 2003: Stray and Zlotnick, 2006), or interact with a core assembly intermediate and promote the formation of empty capsids (AT-61) (Feld et al., 2007; Katen et al., King et al., 1998). The amounts of intracellular viral mRNA, encapsidated pgRNA, capsids and nucleocapsid-associated HBV DNA were analyzed with the methods detailed below.
Determination of encapsidated pgRNA: AML12HBV10 cells were lysed by addition of 600 μl of lysis buffer (50 mM Tris-HCl [pH 7.5], 1 mM EDTA, 150 mM NaCl, 1% NP-40) into each well of 12-well plates. The nuclei were removed by centrifugation at 5,000 g for 10 minutes. One-half of the sample was mixed with 6 U of micrococcal nuclease (Pharmacia) and 15 μl of 100 mM CaCl2 and incubated for 15 minutes at 37° C. to digest free nucleic acids. The reaction was stopped with 6 μl of 0.5 M EDTA, and capsids were precipitated by adding 125 μl of 35% polyethylene glycol 8000 in 1.75 M NaCl to the reaction and incubating in ice for 30 minutes, followed by centrifugation at 6,000 g for 10 minutes at 4° C. Pellets were re-suspended in 50 μl of TNE buffer (10 mM Tris-HCl [pH 8], 100 mM NaCl, 1 mM EDTA), pgRNA was extracted by the addition of 1 ml of Trizol reagent. The encapsidated pgRNA were electrophoresed through a 2.2 M formaldehyde-1% agarose gel, transferred to a nylon membrane, and immobilized by UV cross-linking (Stratagene). Hybridization was performed with an alpha-^32P-UTP labeled riboprobe specific for plus strand of HBV genome.

HBV = experiment: Antiviral efficacy in AML12HBV10 cells, HBV DNA by dot-blot hybridization; assay type: cell-based, Hepatitis B virus (HBV); settings: Hepatitis B virus
Method: The antiviral efficacy of the compounds of the disclosure, as presented in Tables 5, 6, 7, 8 and 9, were determined in AML12HBV10 cells. AML12HBV10 is an immortalized murine hepatocyte (AML12)-derived stable cell line that supports robust HBV replication in a tetracycline inducible manner (Xu et al.). The cells were seeded into 96 well plates at a density of 2×10^4 cells per well and cultured in DMEM/F12 media with 10% fetal bovine serum in the absence of tetracycline to allow pgRNA transcription and HBV DNA replication. One day after seeding, cells were left untreated or treated with a serial dilution of testing compounds, ranging from 50 μM to 0.39 μM, for 48 hours. Cells were then lysed by adding into each well of 100 μl lysis buffer containing 10 mM Tris-HCl (pH 7.6), 1 mM EDTA, 100 mM NaCl and 1% NP-40 and incubated at 37° C. for 30 minutes. Half amount (50 μl) of cell lysate from each well was combined with equal volume of denaturing solution containing 0.5N NaOH and 1.5M NaCl. After 5 minute incubation, 100 μl of neutralization solution (IM Tris-HCl, pH 7.4, 1.5M NaCl) was added into each well. The denatured cell lysates (totally 200 μl) were applied onto Nylon membrane using 96-well dot-blot manifold (Biorad). HBV DNA in the cell lysates were determined by dot-blot hybridization with alpha-^32P-UTP-labelled riboprobe specific for HBV minus strand DNA. The antiviral efficacy of a compound of the disclosure was expressed as the concentration that reduces the amount of HBV DNA by 50% (EC50).

AML12HBV10 cells = experiment: Cytotoxicity in AML12HBV10 cells, MTT assay; assay type: cell-based, murine; settings: Table 10, AML12HBV10 cells, unit inferred; read-out: AML12HBV10 CC50
Method: (§1) Determination of cytotoxicity of compounds of the disclosure in AML12HBV10 cells: To determine the cytotoxicity of the compounds, AML12HBV10 cells were seeded into 96-well plates at a density of 2×10^4 cells per well and cultured in DMEM/F12 media with 10% fetal bovine serum in the absence of tetracycline to allow pgRNA transcription and HBV DNA replication. One day after seeding, cells were left untreated or treated with a serial dilution of testing compounds, ranging from 50 μM to 0.39 μM, for 48 hours. The cell viability was measured by a MTT assay, following procedure provided by the manufacturer (Promega). The cytotoxicity of a compound was expressed as the concentration of compound that reduces the viability of the cells by 50% (CC50).

[2] = Cytotoxicity in AML12HBV10 cells, MTT assay; assay type: cell-based, murine; settings: mouse; AML12HBV10 cells, 48 hours, MTT; read-out: CC50 (cellular toxicity)
Method: as §1

[3] = AML12HBV10 cells, 48 hours, concentration reducing HBV DNA by 50%, read-out: EC50 (antiviral activity by dot blot hybridization)
[4] = Table 10, AML12HBV10 cells, unit inferred, read-out: AML12HBV10 EC50

SMILES | CC50 at 6 days [1] | level of encapsidated pgRNA (encapsidated pgRNA) | EC50 (HBV; [3]) | EC50 (HBV; [4]) | CC50 (AML12HBV10 cells) | CC50 at 48 h [2]
CCC(C)NS(=O)(=O)c1ccc(F)c(C(=O)Nc2ccc(F)c(F)c2)c1 (stereo not drawn) [DVR-23, 5-sec-butylsulfamoyl-N-(3,4-difluoro-phenyl)-2-fluoro-benzamide] | > 50 µM | dose-dependently reduced | 390 nM | 390 nM | > 50 µM | > 50 µM
O=C(Nc1ccc(F)c(F)c1)c1cc(S(=O)(=O)NC2CCCC2)ccc1F [DVR-56, 5-cyclopentylsulfamoyl-N-(3,4-difluoro-phenyl)-2-fluoro-benzamide] | > 50 µM | dose-dependently reduced | 390 nM | 390 nM | > 50 µM | > 50 µM
